Data from US20230233576A1, “ECLITASERTIB FOR USE IN TREATING CONDITIONS INVOLVING SYSTEMIC HYPERINFLAMMATORY RESPONSE” (priority 2020, published 2023).
“And” between values parts separate entries of the source, which are not always exact repeats. Identical values can stand only once.

Tests used:
[1] = test system: adult participants hospitalized for severe COVID-19; experiment: Phase 1b severe COVID-19 study: ECG abnormalities (PCSA); format: in vivo, human; conditions: for HR (bpm) Delta (change from baseline) / HR (bpm) Value / PR % change from baseline / PR (ms) Value / QRS % change from baseline / QRS (ms) Value / QT (ms) Delta (change from baseline) / QT (ms) Value / QTcB (ms) Delta (change from baseline) / QTcB (ms) Value / QTcF (ms) Delta (change from baseline) / QTcF (ms) Value: Discharge Before Day 15
Description: Physical examination including lung auscultation and assessment of consciousness, vital sign, electrocardiogram (ECG) parameters were measured per protocol.
For laboratory parameters (hematology, clinical chemistry, and urinalysis), vital signs, and ECG, incidences of potentially clinically significant abnormality (PCSA) values, actual values and change from baseline were summarized by treatment group.
For all laboratory, vital signs and ECG parameters, raw data and change from baseline were summarized in descriptive statistics by treatment group and scheduled time of measurement, with the exception of AST, ALT and alkaline phosphatase: instead of summarizing data in descriptive statistics, participants' profiles were presented through graphics by treatment group and with a color code to identify sites. The reason was that blood samples were processed by local laboratories with different normal ranges. For the rest of clinical laboratory these parameters it is reasonable to pool data as they are standard procedure and no significant differences in normal ranges were expected.

[2] = test system: C-reactive protein (CRP) levels; experiment: Phase 1b severe COVID-19 study: CRP level; format: in vivo, human; conditions: 600 mg; for CRP raw data Mean / CRP relative change from baseline Mean / CRP raw data Median / CRP relative change from baseline Median: observed; for CRP raw data Mean / CRP relative change from baseline Mean: no imputation
[3] = 600 mg (N = 47), TEAE period, safety population
[4] = individual participant 84.0 kg, 600 mg
[5] = individual participant 98.0 kg, 600 mg
[6] = individual participant 114.0 kg, 600 mg
[7] = Day 03, MMRM, LOCF, Efficacy population
[8] = Day 05, MMRM, LOCF, Efficacy population
[9] = Day 07, MMRM, LOCF, Efficacy population
[10] = Day 15, MMRM, LOCF, Efficacy population

In the case of `CN1C(=O)[C@@H](NC(=O)c2nnc(Cc3ccccc3)[nH]2)COc2cccnc21` [RIPK1 Inhibitor, (S)-5-benzyl-N-(5-methyl-4-oxo-2,3,4,5-tetrahydropyrido[3,2-b][1,4]oxazepin-3-yl)-4H-1,2,4-triazole-3-carboxamide], the “ECG PCSA Heart Rate <40 beats/min” value [1, 3] is reported as 0/44, the “ECG PCSA Heart Rate <50 beats/min” value [1, 3] is reported as 1/44 and the “ECG PCSA Heart Rate <50 beats/min and decrease from baseline ≥20 beats/min” value [1, 3] is reported as 0/44. The “ECG PCSA Heart Rate >100 beats/min” value [1, 3] was 3/44, the “ECG PCSA Heart Rate >100 beats/min and increase from baseline ≥20 beats/min” value [1, 3] was 3/44 and the “ECG PCSA Heart Rate >120 beats/min” value [1, 3] was 1/44. For the same compound, the “ECG PCSA Heart Rate >120 beats/min and increase from baseline 20 beats/min” value [1, 3] was 1/44, the “ECG PCSA Heart rate>90 beats/min” value [1, 3] was 6/44 and the “ECG PCSA PR Interval >200 msec” value [1, 3] was 1/43. The “ECG PCSA PR Interval >200 msec and increase from baseline ≥25%” value [1, 3] was 0/43, the “ECG PCSA PR Interval >220 msec” value [1, 3] was 1/43 and the “ECG PCSA PR Interval >220 msec and increase from baseline ≥25%” value [1, 3] was 0/43. For the same compound, the “ECG PCSA PR Interval >240 msec” value [1, 3] was 0/43, the “ECG PCSA QRS Interval >110 msec” value [1, 3] was 6/44 and the “ECG PCSA QRS Interval >110 msec and increase from baseline ≥25%” value [1, 3] was 3/44. For the same compound, the “ECG PCSA QRS Interval >120 msec” value [1, 3] was 3/44, the “ECG PCSA QRS Interval >120 msec and increase from baseline ≥25%” value [1, 3] was 2/44 and the “ECG PCSA QT Interval >500 msec” value [1, 3] was 0/44. The “ECG PCSA QTc Bazett - change from baseline: Increase from baseline >60 msec” value [1, 3] was 5/39, the “ECG PCSA QTc Bazett - change from baseline: Increase from baseline ]30-60] msec” value [1, 3] was 2/39 and the “ECG PCSA QTc Bazett >450 msec” value [1, 3] was 5/44. The “ECG PCSA QTc Bazett >500 msec” value [1, 3] was 3/44, the “ECG PCSA QTc Bazett>480 msec” value [1, 3] was 3/44 and the “ECG PCSA QTc Fridericia - change from baseline: Increase from baseline >60 msec” value [1, 3] was 2/25. The “ECG PCSA QTc Fridericia - change from baseline: Increase from baseline ]30-60] msec” value [1, 3] was 2/25, the “ECG PCSA QTc Fridericia >450 msec” value [1, 3] was 1/29 and the “ECG PCSA QTc Fridericia >480 msec” value [1, 3] was 1/29. The “ECG PCSA QTc Fridericia >500 msec” value [1, 3] was 0/29, the “ECG PCSA heart rate>90 beats/min and increase from baseline≥20 beats/min” value [1, 3] was 5/44 and the “ECG PCSA Heart rate>90 beats/min” value ([1]; 600 mg, TEAE period) was 6 participants. For the same compound, the “ECG PCSA QRS interval>110 ms” value ([1]; 600 mg, TEAE period) was 6 participants, the “ECG PCSA QTc Bazett (QTcB)>450 ms” value ([1]; 600 mg, TEAE period) was 5 participants and the “ECG PCSA QTc Bazett change from baseline>60 ms” value ([1]; 600 mg, TEAE period) was 5 participants. For the same compound, the “ECG PCSA QTc Bazett>480 msec” value ([1]; 600 mg, TEAE period) was 3 participants, the “ECG PCSA QTc Bazett>500 ms” value ([1]; 600 mg, TEAE period) was 3 participants and the “ECG PCSA heart rate>90 beats/min and increase from baseline≥20 beats/min” value ([1]; 600 mg, TEAE period) was 5 participants. For the same compound, the “HR (bpm) Delta (change from baseline)” value [1, 4] was −5 bpm, the “HR (bpm) Value” [1, 4] was 73 bpm and the “PR % change from baseline” value [1, 4] was 0.0%. The “PR (ms) Value” [1, 4] was 120 ms, the “QRS % change from baseline” value [1, 4] was 5.0% and the “QRS (ms) Value” [1, 4] was 84 ms. The “QT (ms) Delta (change from baseline)” value [1, 4] was 0 ms, the “QT (ms) Value” [1, 4] was 380 ms and the “QTcB (ms) Delta (change from baseline)” value [1, 4] was 69 ++ ms. For the same compound, the “QTcB (ms) Value” [1, 4] was 449 ms, the “QTcF (ms) Delta (change from baseline)” value [1, 4] was -34 ms and the “QTcF (ms) Value” [1, 4] was 380 ms. The “HR (bpm) Delta (change from baseline)” value [1, 5] was −1 bpm, the “HR (bpm) Value” [1, 5] was 81 bpm and the “PR % change from baseline” value [1, 5] was 12.3%. The “PR (ms) Value” [1, 5] was 164 ms, the “QRS % change from baseline” value [1, 5] was −14% and the “QRS (ms) Value” [1, 5] was 95 ms. For the same compound, the “QT (ms) Delta (change from baseline)” value [1, 5] was -3 ms, the “QT (ms) Value” [1, 5] was 371 ms and the “QTcB (ms) Delta (change from baseline)” value [1, 5] was 84 ++ ms. The “QTcB (ms) Value” [1, 5] was 431 ms, the “QTcF (ms) Delta (change from baseline)” value [1, 5] was -5 ms and the “QTcF (ms) Value” [1, 5] was 410 ms. For the same compound, the “HR (bpm) Delta (change from baseline)” value [1, 6] was 38 + bpm, the “HR (bpm) Value” [1, 6] was 96 + bpm and the “PR % change from baseline” value [1, 6] was −11%. For the same compound, the “PR (ms) Value” [1, 6] was 160 ms, the “QRS % change from baseline” value [1, 6] was −20% and the “QRS (ms) Value” [1, 6] was 80 ms. The “QT (ms) Delta (change from baseline)” value [1, 6] was -30 ms, the “QT (ms) Value” [1, 6] was 360 ms and the “QTcB (ms) Delta (change from baseline)” value [1, 6] was 72 ++ ms. For the same compound, the “QTcB (ms) Value” [1, 6] was 455 + ms, the “QTcF (ms) Delta (change from baseline)” value [1, 6] was 36 + ms and the “QTcF (ms) Value” [1, 6] was 421 ms. For the same compound, the “Percent change from baseline in CRP, point estimate” value (shortened to “Percent change from baseline in CRP”) [2, 7] was −12.85%, the “Relative change from baseline in CRP, point estimate (geometric means)” value (“Relative change … (geometric means)” below) [2, 7] was 0.87 and the “CRP raw data Mean” value ([2]; Day 3, Efficacy population) was 59.4 mg/L. The “CRP relative change from baseline Mean” value ([2]; Day 3, Efficacy population) was 0.58 and 0.581, the “CRP raw data Median” value ([2]; Day 3, Efficacy population) was 44.4 mg/L and the “CRP relative change from baseline Median” value ([2]; Day 3, Efficacy population) was 0.384. The “relative change from baseline in CRP, RIPK1 Inhibitor versus placebo ratio” value ([2]; Day 3, with imputation of missing data) was 0.91, the “relative change from baseline in CRP, RIPK1 Inhibitor versus placebo ratio” value ([2]; Day 3, without imputation of missing data) was 0.92 and the “Percent change from baseline in CRP” value [2, 8] was −51.43%. The “Relative change … (geometric means)” value [2, 8] was 0.49, the “CRP raw data Mean” value ([2]; Day 5, Efficacy population) was 37.7 mg/L and the “CRP relative change from baseline Mean” value ([2]; Day 5, Efficacy population) was 0.37 and 0.368. The “CRP raw data Median” value ([2]; Day 5, Efficacy population) was 24.2 mg/L, the “CRP relative change from baseline Median” value ([2]; Day 5, Efficacy population) was 0.195 and the “relative change from baseline in CRP, RIPK1 Inhibitor versus placebo ratio” value ([2]; Day 5, with imputation of missing data) was 0.70. The “relative change from baseline in CRP, RIPK1 Inhibitor versus placebo ratio” value ([2]; Day 5, without imputation of missing data) was 0.73, the “mean of relative change from baseline in CRP” value ([2]; Day 7, LOCF imputation) was 0.315 and the “median of relative change from baseline in CRP” value ([2]; Day 7, LOCF imputation) was 0.165. The “Percent change from baseline in CRP” value [2, 9] was −64.81%, the “Relative change … (geometric means)” value [2, 9] was 0.35 and the “ratio of the adjusted relative change from baseline in CRP, RIPK1 Inhibitor vs placebo (point estimate)” value ([2]; Day 7, MMRM, LOCF, Efficacy population, below 1 = larger decrease than placebo) was 0.85. The “observed mean of CRP” value ([2]; Day 7, missing values imputed with LOCF) was 28.1 mg/L, the “CRP raw data Mean” value ([2]; Day 7, Efficacy population) was 24.2 mg/L and the “CRP relative change from baseline Mean” value ([2]; Day 7, Efficacy population) was 0.289. For the same compound, the “CRP raw data Median” value ([2]; Day 7, Efficacy population) was 14.0 mg/L, the “CRP relative change from baseline Median” value ([2]; Day 7, Efficacy population) was 0.119 and the “Percent change from baseline in CRP” value [2, 10] was −71.76%. The “Relative change … (geometric means)” value [2, 10] was 0.28, the “CRP raw data Mean” value ([2]; Day 15, Efficacy population) was 29.2 mg/L and the “CRP relative change from baseline Mean” value ([2]; Day 15, Efficacy population) was 0.380. The “CRP raw data Median” value ([2]; Day 15, Efficacy population) was 9.6 mg/L, the “CRP relative change from baseline Median” value ([2]; Day 15, Efficacy population) was 0.092 and the “median time for 50% decrease in CRP level relative to baseline” value ([2]; Kaplan-Meier, Efficacy population) was 3 days. For the same compound, the “participants with 50% decrease from baseline in CRP” value ([2]; by Day 3) was 69.2%.
